Data reported in PMC7316778 (Nature Communications, 2020).
Where two headings read alike, the source gives them in different places.

Tests used:
Test in all cases: SelectScreen kinase assay
[1] = biological target: MAPK10 (JNK3) (Homo sapiens, UniProt P53779)
Method: (§1) Selectivity profiling assays were performed by the Invitrogen SelectScreen™ Services. […] The concentration of ATP was selected to be equal to the KM, unless indicated otherwise.

[2] = biological target: T1, PRKD1 (PKC mu) (Homo sapiens, UniProt Q15139)
T1 sequence (Q15139 1-912): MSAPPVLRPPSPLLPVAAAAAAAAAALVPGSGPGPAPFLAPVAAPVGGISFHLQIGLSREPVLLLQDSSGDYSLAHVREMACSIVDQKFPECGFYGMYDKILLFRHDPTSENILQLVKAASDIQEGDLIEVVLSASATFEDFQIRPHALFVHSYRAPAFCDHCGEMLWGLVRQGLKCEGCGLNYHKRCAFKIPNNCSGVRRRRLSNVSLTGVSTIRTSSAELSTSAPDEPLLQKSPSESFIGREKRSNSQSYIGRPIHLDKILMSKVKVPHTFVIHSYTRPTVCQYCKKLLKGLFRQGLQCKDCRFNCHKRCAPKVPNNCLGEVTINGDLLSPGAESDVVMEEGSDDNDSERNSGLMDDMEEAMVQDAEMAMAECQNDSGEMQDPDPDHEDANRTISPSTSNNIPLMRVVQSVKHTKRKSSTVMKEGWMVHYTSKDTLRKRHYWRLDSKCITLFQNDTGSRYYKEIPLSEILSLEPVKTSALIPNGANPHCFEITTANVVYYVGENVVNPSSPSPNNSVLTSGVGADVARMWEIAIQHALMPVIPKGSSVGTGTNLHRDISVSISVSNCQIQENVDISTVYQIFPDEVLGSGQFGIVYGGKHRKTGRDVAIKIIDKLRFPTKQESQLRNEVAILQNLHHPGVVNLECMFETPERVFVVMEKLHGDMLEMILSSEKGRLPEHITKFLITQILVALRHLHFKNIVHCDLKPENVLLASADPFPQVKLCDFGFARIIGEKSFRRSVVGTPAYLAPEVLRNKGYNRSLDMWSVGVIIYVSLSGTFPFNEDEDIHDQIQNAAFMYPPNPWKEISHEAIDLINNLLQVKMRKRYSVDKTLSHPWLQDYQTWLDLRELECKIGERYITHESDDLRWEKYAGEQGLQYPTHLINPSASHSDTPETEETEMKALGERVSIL
Method: as §1

[3] = biological target: TLK2 (Homo sapiens, UniProt Q86UE8)
TLK2, sequence (Q86UE8 whole entry): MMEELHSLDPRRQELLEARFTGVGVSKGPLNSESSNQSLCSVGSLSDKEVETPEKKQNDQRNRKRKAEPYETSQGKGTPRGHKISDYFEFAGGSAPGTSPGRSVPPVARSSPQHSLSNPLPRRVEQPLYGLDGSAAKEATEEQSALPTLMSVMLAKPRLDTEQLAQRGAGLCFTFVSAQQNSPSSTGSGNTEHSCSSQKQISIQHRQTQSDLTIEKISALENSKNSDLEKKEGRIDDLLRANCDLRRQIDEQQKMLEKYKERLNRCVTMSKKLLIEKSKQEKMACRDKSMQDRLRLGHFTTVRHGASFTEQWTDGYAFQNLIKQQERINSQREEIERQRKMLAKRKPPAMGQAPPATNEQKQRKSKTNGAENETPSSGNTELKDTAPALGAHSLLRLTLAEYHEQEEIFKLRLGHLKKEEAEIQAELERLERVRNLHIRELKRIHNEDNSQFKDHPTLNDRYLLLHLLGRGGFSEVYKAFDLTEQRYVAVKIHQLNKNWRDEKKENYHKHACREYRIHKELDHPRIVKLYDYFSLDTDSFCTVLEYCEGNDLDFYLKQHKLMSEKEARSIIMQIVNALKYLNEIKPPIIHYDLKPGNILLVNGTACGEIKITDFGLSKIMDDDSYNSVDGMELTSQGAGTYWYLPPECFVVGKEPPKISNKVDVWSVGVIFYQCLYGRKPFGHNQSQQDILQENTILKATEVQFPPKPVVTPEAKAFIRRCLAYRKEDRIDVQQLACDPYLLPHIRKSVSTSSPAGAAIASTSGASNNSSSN
Method: as §1

[4] = biological target: T2, ITK (Homo sapiens, UniProt Q08881); conditions: for Inhibition at 1 µM (%): ITK, ZLYTE, ATP Km app
T2 sequence (Q08881 1-620): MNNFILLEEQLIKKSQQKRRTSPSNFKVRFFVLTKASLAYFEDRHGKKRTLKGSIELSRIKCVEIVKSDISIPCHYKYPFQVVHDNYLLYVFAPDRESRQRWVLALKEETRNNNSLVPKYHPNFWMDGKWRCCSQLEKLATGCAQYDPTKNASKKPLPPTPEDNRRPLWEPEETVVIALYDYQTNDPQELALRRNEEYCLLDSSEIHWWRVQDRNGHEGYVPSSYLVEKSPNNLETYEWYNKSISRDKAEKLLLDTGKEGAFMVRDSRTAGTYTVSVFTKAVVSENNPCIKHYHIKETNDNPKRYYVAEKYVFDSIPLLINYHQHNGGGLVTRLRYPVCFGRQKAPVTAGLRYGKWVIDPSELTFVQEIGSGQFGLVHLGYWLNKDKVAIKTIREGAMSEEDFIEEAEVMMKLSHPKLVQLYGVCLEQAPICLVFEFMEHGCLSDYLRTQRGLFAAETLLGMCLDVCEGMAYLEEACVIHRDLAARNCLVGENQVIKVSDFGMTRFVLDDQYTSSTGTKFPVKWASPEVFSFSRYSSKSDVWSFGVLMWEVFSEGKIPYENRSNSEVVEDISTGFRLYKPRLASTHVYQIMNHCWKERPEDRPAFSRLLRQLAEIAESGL
Method: as §1

[5] = biological target: PIK3C3 (hVPS34) (Homo sapiens, UniProt Q8NEB9)
PIK3C3 (hVPS34), sequence (Q8NEB9 whole entry): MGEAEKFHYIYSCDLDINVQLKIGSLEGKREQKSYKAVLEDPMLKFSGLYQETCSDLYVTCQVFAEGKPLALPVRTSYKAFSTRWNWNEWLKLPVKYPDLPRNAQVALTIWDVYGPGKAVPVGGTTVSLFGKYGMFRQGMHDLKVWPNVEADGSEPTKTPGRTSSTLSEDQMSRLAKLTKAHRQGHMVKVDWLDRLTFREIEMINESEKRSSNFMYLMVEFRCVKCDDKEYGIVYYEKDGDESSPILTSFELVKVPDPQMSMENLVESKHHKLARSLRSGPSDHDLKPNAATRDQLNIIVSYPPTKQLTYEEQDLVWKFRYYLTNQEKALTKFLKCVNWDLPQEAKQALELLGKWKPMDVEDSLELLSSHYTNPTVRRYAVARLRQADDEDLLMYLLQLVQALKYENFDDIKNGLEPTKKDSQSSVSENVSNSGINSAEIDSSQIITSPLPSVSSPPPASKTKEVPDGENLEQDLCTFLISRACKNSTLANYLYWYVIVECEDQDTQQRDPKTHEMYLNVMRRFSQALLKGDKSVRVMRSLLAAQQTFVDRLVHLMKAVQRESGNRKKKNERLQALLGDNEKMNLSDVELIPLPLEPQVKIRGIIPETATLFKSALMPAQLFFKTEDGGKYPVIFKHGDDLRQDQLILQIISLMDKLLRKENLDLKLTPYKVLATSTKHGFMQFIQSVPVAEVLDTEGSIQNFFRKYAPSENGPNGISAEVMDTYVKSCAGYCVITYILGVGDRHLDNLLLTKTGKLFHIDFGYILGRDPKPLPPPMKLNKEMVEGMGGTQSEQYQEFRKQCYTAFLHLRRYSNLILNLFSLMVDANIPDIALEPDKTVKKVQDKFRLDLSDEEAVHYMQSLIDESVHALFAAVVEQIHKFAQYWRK
Method: as §1

[6] = biological target: INSR (Homo sapiens, UniProt P06213)
INSR, sequence (P06213 28-1382): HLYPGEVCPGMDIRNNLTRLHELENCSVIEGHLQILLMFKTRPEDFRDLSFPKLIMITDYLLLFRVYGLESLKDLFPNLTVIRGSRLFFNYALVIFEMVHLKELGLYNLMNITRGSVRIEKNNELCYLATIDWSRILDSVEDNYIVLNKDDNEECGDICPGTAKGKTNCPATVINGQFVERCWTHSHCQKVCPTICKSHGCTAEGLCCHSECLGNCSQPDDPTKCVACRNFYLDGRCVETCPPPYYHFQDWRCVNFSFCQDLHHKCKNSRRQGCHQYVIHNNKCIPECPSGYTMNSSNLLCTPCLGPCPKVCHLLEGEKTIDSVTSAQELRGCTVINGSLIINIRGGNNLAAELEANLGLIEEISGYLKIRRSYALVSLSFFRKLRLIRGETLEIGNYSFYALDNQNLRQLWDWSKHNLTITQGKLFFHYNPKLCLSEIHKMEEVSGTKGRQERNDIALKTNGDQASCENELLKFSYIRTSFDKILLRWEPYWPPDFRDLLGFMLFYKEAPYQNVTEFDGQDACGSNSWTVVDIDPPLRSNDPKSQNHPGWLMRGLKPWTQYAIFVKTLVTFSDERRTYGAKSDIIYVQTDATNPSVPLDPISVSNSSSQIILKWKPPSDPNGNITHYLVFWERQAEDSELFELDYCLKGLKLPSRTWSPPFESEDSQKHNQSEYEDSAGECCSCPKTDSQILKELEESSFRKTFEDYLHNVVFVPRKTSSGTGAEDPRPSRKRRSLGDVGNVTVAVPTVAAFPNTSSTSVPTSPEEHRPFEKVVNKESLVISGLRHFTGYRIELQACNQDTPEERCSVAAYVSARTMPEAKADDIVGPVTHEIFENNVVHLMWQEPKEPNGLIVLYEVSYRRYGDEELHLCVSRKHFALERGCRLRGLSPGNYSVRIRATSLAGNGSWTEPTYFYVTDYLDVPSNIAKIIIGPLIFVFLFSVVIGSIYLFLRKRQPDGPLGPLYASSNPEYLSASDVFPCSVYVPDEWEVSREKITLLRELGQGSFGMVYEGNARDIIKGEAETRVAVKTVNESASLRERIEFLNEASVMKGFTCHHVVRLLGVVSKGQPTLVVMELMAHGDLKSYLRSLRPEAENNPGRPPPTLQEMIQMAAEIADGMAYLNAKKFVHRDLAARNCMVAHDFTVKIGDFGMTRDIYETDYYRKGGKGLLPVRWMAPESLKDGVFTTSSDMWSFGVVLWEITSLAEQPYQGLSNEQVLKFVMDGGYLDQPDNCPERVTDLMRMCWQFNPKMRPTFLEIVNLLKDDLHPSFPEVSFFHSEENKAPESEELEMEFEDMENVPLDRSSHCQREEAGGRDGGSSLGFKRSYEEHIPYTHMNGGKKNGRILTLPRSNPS
Method: as §1

[7] = biological target: CSNK1A1L (Homo sapiens, UniProt Q8N752)
CSNK1A1L, sequence (Q8N752 whole entry): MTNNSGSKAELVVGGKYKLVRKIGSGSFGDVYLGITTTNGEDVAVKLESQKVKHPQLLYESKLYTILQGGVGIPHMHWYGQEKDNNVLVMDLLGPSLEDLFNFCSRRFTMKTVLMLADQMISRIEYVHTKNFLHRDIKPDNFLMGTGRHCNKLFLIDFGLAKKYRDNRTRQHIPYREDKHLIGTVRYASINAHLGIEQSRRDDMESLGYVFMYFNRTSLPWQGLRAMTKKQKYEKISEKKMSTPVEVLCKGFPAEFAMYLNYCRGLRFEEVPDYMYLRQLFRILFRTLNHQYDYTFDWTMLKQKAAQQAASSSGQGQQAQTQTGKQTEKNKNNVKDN
Method: as §1

[8] = biological target: MAP2K1 (MEK1) (Homo sapiens, UniProt Q02750)
MAP2K1 (MEK1), sequence (Q02750 whole entry, species assumed): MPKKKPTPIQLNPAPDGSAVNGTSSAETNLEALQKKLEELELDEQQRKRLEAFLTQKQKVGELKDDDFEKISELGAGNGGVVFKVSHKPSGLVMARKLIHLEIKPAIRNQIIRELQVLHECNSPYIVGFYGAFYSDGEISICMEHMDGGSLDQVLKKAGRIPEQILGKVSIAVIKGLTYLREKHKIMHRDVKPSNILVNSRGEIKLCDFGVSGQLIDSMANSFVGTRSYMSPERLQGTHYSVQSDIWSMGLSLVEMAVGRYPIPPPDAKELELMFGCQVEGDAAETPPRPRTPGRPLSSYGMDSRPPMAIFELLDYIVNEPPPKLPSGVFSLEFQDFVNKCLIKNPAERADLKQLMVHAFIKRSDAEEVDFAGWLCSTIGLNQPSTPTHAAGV
Method: as §1

[9] = 1 h, 1 μM WEL028, 1 h preincubation
[10] = read-out: Inhibition at 1 µM (%)

MAPK10 (JNK3), sequence (P53779 whole entry): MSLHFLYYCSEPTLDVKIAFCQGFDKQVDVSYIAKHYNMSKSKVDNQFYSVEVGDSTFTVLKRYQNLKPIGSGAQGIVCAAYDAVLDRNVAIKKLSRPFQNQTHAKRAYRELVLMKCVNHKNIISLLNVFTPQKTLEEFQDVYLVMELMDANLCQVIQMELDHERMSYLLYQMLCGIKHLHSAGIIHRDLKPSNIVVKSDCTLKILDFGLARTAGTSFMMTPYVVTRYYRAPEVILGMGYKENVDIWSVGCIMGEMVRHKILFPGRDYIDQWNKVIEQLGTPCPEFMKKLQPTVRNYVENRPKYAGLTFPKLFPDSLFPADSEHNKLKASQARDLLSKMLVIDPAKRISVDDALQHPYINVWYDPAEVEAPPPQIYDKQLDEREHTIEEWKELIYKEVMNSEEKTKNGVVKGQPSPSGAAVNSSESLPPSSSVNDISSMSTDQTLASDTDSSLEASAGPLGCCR

`C#CCOc1ccc(Nc2ncc(Cl)c(Nc3ccccc3NC(=O)C=C)n2)c(OC)c1` [Compound 6] was tested, and the “Inhibition (%)” value ([1]; 1 μM WEL028, 1 h preincubation) was -7%, the “Inhibition at 1 µM (%)” value ([1]; MAPK10 (JNK3), 1 µM, ZLYTE, ATP 100) was -14% and the “Inhibition at 1 µM (%)” value ([2]; 1 µM, ZLYTE, ATP Km app, listed as WEL028, 1 µM) was 9%. The inhibition at 1 µM [2, 9] was 11%, the inhibition at 1 µM ([2]; read-out: Inhibition at 1 µM (%), 1 µM, ZLYTE, ATP Km app) was 12% and the “Inhibition at 1 µM (%)” value ([3]; 1 µM, LanthaScreen Binding, listed as WEL028, 1 µM) was 1%. The inhibition at 1 µM [3, 9] was 0%, the “Inhibition (%)” value ([4]; 1 μM WEL028, 1 h preincubation) was -7% and the “Inhibition at 1 µM (%)” value [4] was -3%. The “Inhibition at 1 µM (%)” value ([4]; listed as WEL028, 1 µM) was -10%, the inhibition at 1 µM [5, 9] was 11% and the “Inhibition at 1 µM (%)” value ([5]; PIK3C3 (hVPS34), 1 µM, Adapta, ATP Km app, listed as WEL028, 1 µM) was 12%. The inhibition at 1 µM ([5]; read-out: Inhibition at 1 µM (%), PIK3C3 (hVPS34), 1 µM, Adapta, ATP Km app) was 11%, the inhibition at 1 µM ([6]; 1 h) was 11% and the inhibition at 1 µM [6, 10] was 11%. The inhibition at 1 µM ([7]; 1 h) was 5%, the inhibition at 1 µM [7, 10] was 5% and the IC50 [8] was 251 nM. It also gave an inhibition at 10 µM ([8]; 1 h, log[inhibitor] (M) -5.00, ZLYTE, ATP 100) of 110%, an inhibition at 3.311 µM ([8]; 1 h, log[inhibitor] (M) -5.48, ZLYTE, ATP 100) of 106% and an inhibition at 1.122 µM ([8]; 1 h, log[inhibitor] (M) -5.95, ZLYTE, ATP 100) of 106%. The inhibition at 0.3715 µM ([8]; 1 h, log[inhibitor] (M) -6.43, ZLYTE, ATP 100) was 78%, the inhibition at 0.123 µM ([8]; 1 h, log[inhibitor] (M) -6.91, ZLYTE, ATP 100) was 44% and the inhibition at 0.04074 µM ([8]; 1 h, log[inhibitor] (M) -7.39, ZLYTE, ATP 100) was 29%. For the same compound, the inhibition at 0.0138 µM ([8]; 1 h, log[inhibitor] (M) -7.86, ZLYTE, ATP 100) was 40%, the inhibition at 0.001514 µM ([8]; 1 h, log[inhibitor] (M) -8.82, ZLYTE, ATP 100) was 19% and the inhibition at 0.0004898 µM ([8]; 1 h, log[inhibitor] (M) -9.31, ZLYTE, ATP 100) was 18%. The inhibition at 0.004571 µM ([8]; 1 h, log[inhibitor] (M) -[…], ZLYTE, ATP 100) was 27%, the Apparent fold selectivity ([8]; IC50 on that kinase divided by IC50 on FES^S700C) was 60 fold and the “Inhibition at 1 µM (%)” value ([8]; MAP2K1 (MEK1), 1 µM, ZLYTE, ATP 100, listed as WEL028, 1 µM) was 108%. It also gave an inhibition at 1 µM ([8]; read-out: Inhibition at 1 µM (%), MAP2K1 (MEK1), 1 µM, ZLYTE, ATP 100) of 113%.
